From patent publication US11548871B2, “Triazole carbamate pyridyl sulfonamides as LPA receptor antagonists and uses thereof” (Gilead Sciences, Inc., priority 2019, dated 2023) come the findings set out here.

pEC50: −log10 of the molar value.

This test addresses human LPAR1 (Homo sapiens, UniProt Q92633). In words: LPAR1 intracellular calcium mobilization assay (antagonist mode). (In general: A change in cytosolic calcium serves as a functional read-out for many receptors and channels.)

human LPAR1, sequence (Q92633 whole entry): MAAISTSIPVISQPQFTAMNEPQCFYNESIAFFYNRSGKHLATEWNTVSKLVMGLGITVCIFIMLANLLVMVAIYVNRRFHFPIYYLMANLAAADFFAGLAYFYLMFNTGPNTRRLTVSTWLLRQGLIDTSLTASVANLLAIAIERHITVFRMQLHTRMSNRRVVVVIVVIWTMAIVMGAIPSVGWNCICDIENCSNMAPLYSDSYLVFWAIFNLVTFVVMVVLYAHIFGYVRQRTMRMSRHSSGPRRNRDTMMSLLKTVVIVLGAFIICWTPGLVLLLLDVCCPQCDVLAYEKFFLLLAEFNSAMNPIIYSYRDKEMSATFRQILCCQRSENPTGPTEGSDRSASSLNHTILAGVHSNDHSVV
Procedure: In vitro LPAR1 activity was measured in an intracellular calcium mobilization assay.
Prior to testing cell media were aspirated from the cells and replaced with 20 μL Calcium Dye Loading Buffer (DiscoverX Calcium NoWash^PLUS Assay Kit cat #90-0091) and 2.5 mM Probenecid (Sigma Aldrich cat #P8761, prepared fresh) in HBSS/20 mM Hepes for 60 min at 37° C.
For agonist dose curves, cells were removed from the incubator after dye loading and 10 μL HBSS/20 mM Hepes including 3× vehicle was added. Cells were incubated for 30 min at room temperature in the dark to equilibrate plate temperatures. An intermediate LPA dilution series was prepared in assay buffer to generate 4× stock. Calcium mobilization was monitored on a FLIPR Tetra (MDS, San Jose, Calif.) for 2 min and 10 μL 4×LPA in HBSS/20 mM Hepes was added to the cells 5 s into the assay.
An intermediate antagonist dilution series was prepared as 3× samples in assay buffer. After dye loading, cells were removed from the incubator and 10 μL 3× antagonist was added. Cells were incubated for 30 min at room temperature in the dark to equilibrate plate temperatures. The final vehicle (DMSO) concentration was 1%. Compound antagonist activities was measured on a FLIPR Tetra. Calcium mobilization was monitored for 2 min and 10 μL EC80 agonist in HBSS/20 mM Hepes was added to the cells 5 s into the assay. Compound activity was analyzed using CBIS data analysis suite (ChemInnovation Software, San Diego, Calif.).

With `Cc1nc(-c2nnn(C)c2NC(=O)O[C@H](C)c2cc(Cl)cnc2Cl)ccc1NS(C)(=O)=O` [Compound 142, (R)-1-(2,5-dichloropyridin-3-yl)ethyl (1-methyl-4-(6-methyl-5-(methylsulfonamido)pyridin-2-yl)-1H-1,2,3-triazol-5-yl)carbamate], the pEC50 (usually −log10 of the EC50, conventionally taken in molar units) was 6.85.
With `CCc1ncccc1[C@@H](C)OC(=O)Nc1c(-c2ccc(NS(C)(=O)=O)c(C)n2)nnn1C` [Compound 151, (R)-1-(2-ethylpyridin-3-yl)ethyl (1-methyl-4-(6-methyl-5-(methylsulfonamido)pyridin-2-yl)-1H-1,2,3-triazol-5-yl)carbamate] the figure was 6.23; with `C[C@@H](OC(=O)Nc1c(-c2ccc(NS(=O)(=O)NC3CC3)cn2)nnn1C)c1cccnc1Cl` [Compound 159, (R)-1-(2-chloropyridin-3-yl)ethyl (4-(5-((N-cyclopropylsulfamoyl)amino)pyridin-2-yl)-1-methyl-1H-1,2,3-triazol-5-yl)carbamate], 6.62; with `Cc1nc(-c2nnn(C)c2NC(=O)O[C@H](C)c2cccc(Cl)c2F)ccc1NS(C)(=O)=O` [Compound 24, (R)-1-(3-chloro-2-fluorophenyl)ethyl (1-methyl-4-(6-methyl-5-(methylsulfonamido)pyridin-2-yl)-1H-1,2,3-triazol-5-yl)carbamate], 6.56.
With `Cc1nc(-c2nnn(C)c2NC(=O)OC(C)c2ccncc2Cl)ccc1NS(C)(=O)=O` (stereo not shown) [Compound 75, 1-(3-chloropyridin-4-yl)ethyl (1-methyl-4-(6-methyl-5-(methylsulfonamido)pyridin-2-yl)-1H-1,2,3-triazol-5-yl)carbamate] the figure was 6.81; with `COCc1ccccc1[C@@H](C)OC(=O)Nc1c(-c2ccc(NS(C)(=O)=O)c(C)n2)nnn1C` [Compound 35, (R)-1-(2-(methoxymethyl)phenyl)ethyl (1-methyl-4-(6-methyl-5-(methylsulfonamido)pyridin-2-yl)-1H-1,2,3-triazol-5-yl)carbamate], 6.48.
For the compound `C[C@@H](OC(=O)Nc1c(-c2ccc(NS(=O)(=O)C3CNC3)cn2)nnn1C)c1cccnc1Cl` [Compound 161, (R)-1-(2-chloropyridin-3-yl)ethyl (4-(5-(azetidine-3-sulfonamido)pyridin-2-yl)-1-methyl-1H-1,2,3-triazol-5-yl)carbamate], the pEC50 is 5.28.
The result for `Cc1nc(-c2nnn(C)c2NC(=O)OC(C)c2cc(Cl)cnc2Cl)ccc1NS(C)(=O)=O` (stereo not shown) [Compound 84, 1-(2,5-dichloropyridin-3-yl)ethyl (1-methyl-4-(6-methyl-5-(methylsulfonamido)pyridin-2-yl)-1H-1,2,3-triazol-5-yl)carbamate] reads 6.72; that for `Cc1nc(-c2nnn(C)c2NC(=O)O[C@H](C)c2cccc(F)c2)ccc1NS(=O)(=O)C(C)C` [Compound 105, (R)-1-(3-fluoro-phenyl)ethyl(1-methyl-4-(6-methyl-5-((1-methylethyl)sulfonamido)pyridin-2-yl)-1H-1,2,3-triazol-5-yl)carbamate], 6.56.
With `C[C@@H](OC(=O)Nc1c(-c2ccc(NS(C)(=O)=O)cn2)nnn1C)c1cc(Cl)cnc1F` [Compound 111, (R)-1-(5-chloro-2-fluoropyridin-3-yl)ethyl (1-methyl-4-(5-(methylsulfonamido)pyridin-2-yl)-1H-1,2,3-triazol-5-yl)carbamate] the figure was 7.38.
With `Cc1nc(-c2nnn(C)c2NC(=O)OC(C)c2cccnc2C(F)(F)F)ccc1NS(C)(=O)=O` (stereo not shown) [Compound 85, 1-(2-(trifluoromethyl)pyridin-3-yl)ethyl (1-methyl-4-(6-methyl-5-(methylsulfonamido)pyridin-2-yl)-1H-1,2,3-triazol-5-yl)carbamate] the figure was 5.61; with `C[C@@H](OC(=O)Nc1c(-c2ncc(NS(C)(=O)=O)cc2F)nnn1C)c1cccc(F)c1` [Compound 88, (R)-1-(3-fluorophenyl)ethyl(4-(3-fluoro-5-(methylsulfonamido)pyridin-2-yl)-1-methyl-1H-1,2,3-triazol-5-yl)carbamate], 6.59.
In the case of `Cc1nc(-c2nnn(C)c2NC(=O)O[C@H](CF)c2cccc(Cl)c2)ccc1NS(C)(=O)=O` [Compound 25, (S)-1-(3-chlorophenyl)-2-fluoroethyl (1-methyl-4-(6-methyl-5-(methylsulfonamido)pyridin-2-yl)-1H-1,2,3-triazol-5-yl)carbamate], the pEC50 was 7.73.
With `Cc1nc(-c2nnn(C)c2NC(=O)N[C@@H](c2ccccc2)C(F)F)ccc1NS(C)(=O)=O` [Compound 65, (S)-N-(6-(5-(3-(2,2-difluoro-1-phenylethyl)ureido)-1-methyl-1H-1,2,3-triazol-4-yl)-2-methylpyridin-3-yl)methanesulfonamide] the figure was 5.99; with `Cc1nc(-c2nnn(C)c2NC(=O)O[C@H](C)c2cccnc2C)ccc1NS(C)(=O)=O` [Compound 141, (R)-1-(2-methylpyridin-3-yl)ethyl (1-methyl-4-(6-methyl-5-(methylsulfonamido)pyridin-2-yl)-1H-1,2,3-triazol-5-yl)carbamate], 6.14.
With `C[C@@H](OC(=O)Nc1c(-c2ccc(NS(C)(=O)=O)c(C(F)F)n2)nnn1C)c1ccccc1` [Compound 150, (R)-1-phenylethyl (4-(6-(difluoromethyl)-5-(methylsulfonamido)pyridin-2-yl)-1-methyl-1H-1,2,3-triazol-5-yl)carbamate] the figure was 5.98; with `C[C@@H](OC(=O)Nc1c(-c2ccc(NS(C)(=O)=O)c(C3CC3)n2)nnn1C)c1cccnc1Cl` [Compound 149, (R)-1-(2-chloropyridin-3-yl)ethyl (4-(6-cyclopropyl-5-(methylsulfonamido)pyridin-2-yl)-1-methyl-1H-1,2,3-triazol-5-yl)carbamate], 6.52; with `Cc1nc(-c2nnn(C)c2NC(=O)O[C@H](C)c2cccc(Cl)c2)ccc1NS(C)(=O)=O` [Compound 41, (R)-1-(3-chlorophenyl)ethyl (1-methyl-4-(6-methyl-5-(methylsulfonamido)pyridin-2-yl)-1H-1,2,3-triazol-5-yl)carbamate], 7.19.
With `Cc1nc(-c2nnn(C)c2NC(=O)N[C@H](C)c2ccccc2)ccc1NS(C)(=O)=O` [Compound 64] the figure was 5.56; with `CC(OC(=O)Nc1c(-c2ccc(NS(C)(=O)=O)cn2)nnn1C)c1c(F)cccc1Cl` (stereo not shown) [Compound 120, 1-(2-chloro-6-fluorophenyl)ethyl (1-methyl-4-(5-(methylsulfonamido)pyridin-2-yl)-1H-1,2,3-triazol-5-yl)carbamate], 7.06; with `Cc1nc(-c2nnn(CC#N)c2NC(=O)O[C@@H](c2ccccc2)C(F)F)ccc1NS(C)(=O)=O` [Compound 100, (S)-2,2-difluoro-1-phenylethyl(1-(cyanomethyl)-4-(6-methyl-5-(methylsulfonamido)pyridin-2-yl)-1H-1,2,3-triazol-5-yl)carbamate], 6.94.
As to `COCc1nc(-c2nnn(C)c2NC(=O)O[C@H](C)c2cc(F)cnc2Cl)ccc1NS(C)(=O)=O` [Compound 144, (R)-1-(2-Chloro-5-fluoropyridin-3-yl)ethyl (4-(6-(methoxymethyl)-5-(methylsulfonamido)pyridin-2-yl)-1-methyl-1H-1,2,3-triazol-5-yl)carbamate], the pEC50 was 6.63.
With `Cc1nc(-c2nnn(C)c2NC(=O)O[C@@H](c2cccc(F)c2)C(F)F)ccc1NS(C)(=O)=O` [Compound 58, (S)-2,2-difluoro-1-(3-fluorophenyl)ethyl (1-methyl-4-(6-methyl-5-(methylsulfonamido)pyridin-2-yl)-1H-1,2,3-triazol-5-yl)carbamate] the figure was 7.36; with `Cc1nc(-c2nnn(C)c2NC(=O)OC(C)c2ccnc(F)c2Cl)ccc1NS(C)(=O)=O` (stereo not shown) [Compound 77, 1-(3-chloro-2-fluoropyridin-4-yl)ethyl (1-methyl-4-(6-methyl-5-(methylsulfonamido)pyridin-2-yl)-1H-1,2,3-triazol-5-yl)carbamate], 7.10.
In the case of `Cc1ncc(Cl)cc1[C@@H](C)OC(=O)Nc1c(-c2ccc(NS(C)(=O)=O)cn2)nnn1C` [Compound 113, (R)-1-(5-chloro-2-methylpyridin-3-yl)ethyl (1-methyl-4-(5-(methylsulfonamido)pyridin-2-yl)-1H-1,2,3-triazol-5-yl)carbamate], the pEC50 is 7.08.
As for `Cc1nc(-c2nnn(C)c2NC(=O)OCc2cccc(Cl)c2)ccc1NS(C)(=O)=O` [Compound 39, 3-chlorobenzyl (1-methyl-4-(6-methyl-5-(methylsulfonamido)pyridin-2-yl)-1H-1,2,3-triazol-5-yl)carbamate], the pEC50 was 7.05.
Consider `Cc1nc(-c2nnn(C)c2NC(=O)OCCCC(C)(C)C)ccc1NS(C)(=O)=O` [Compound 30, 4,4-dimethylpentyl (1-methyl-4-(6-methyl-5-(methylsulfonamido)pyridin-2-yl)-1H-1,2,3-triazol-5-yl)carbamate], for which the pEC50 was 6.18.
With `Cc1nc(-c2nnn(C)c2NC(=O)O[C@H](C)CC(C)C)ccc1NS(C)(=O)=O` [Compound 72, (R)-4-methylpentan-2-yl (1-methyl-4-(6-methyl-5-(methylsulfonamido)pyridin-2-yl)-1H-1,2,3-triazol-5-yl)carbamate] the figure was 6.94; with `Cc1nc(-c2nnn(C)c2NC(=O)O[C@H](C)c2cncnc2C)ccc1NS(C)(=O)=O` [Compound 70, (R)-1-(4-methylpyrimidin-5-yl)ethyl (1-methyl-4-(6-methyl-5-(methylsulfonamido)pyridin-2-yl)-1H-1,2,3-triazol-5-yl)carbamate], 5.80; with `Cc1nc(-c2nnn(C)c2NC(=O)O[C@H](C)c2cccnc2F)ccc1NS(C)(=O)=O` [Compound 128, (R)-1-(2-fluoropyridin-3-yl)ethyl (1-methyl-4-(6-methyl-5-(methylsulfonamido)pyridin-2-yl)-1H-1,2,3-triazol-5-yl)carbamate], 6.58.
Regarding `C[C@@H](OC(=O)Nc1c(-c2ccc(NS(C)(=O)=O)cn2)nnn1C)c1ccccc1Cl` [Compound 10, (R)-1-(2-chlorophenyl)ethyl (1-methyl-4-(5-(methylsulfonamido)pyridin-2-yl)-1H-1,2,3-triazol-5-yl)carbamate], the pEC50 is 7.43.
